In US7049311B1, “Pyrrolbenzodiazepines” (Spirogen Limited, priority 1998, dated 2006):
Like-named read-outs stand apart in the source and are kept apart here.

What was measured:
[1] = test system: CH1cisR; experiment: Ovarian carcinoma cytotoxicity assay; assay type: cell-based; conditions: Homo sapiens, CH1cisR; cisplatin-resistant, 96 hours, sulphorhodamine B; read-out: IC50 CH1cisR
Experimental: (§1) Compounds of the invention (and Anthramycin as a comparison) were evaluated for their cytotoxic activity in ovarian cell lines by Dr Lloyd R. Kelland's group at The Institute of Cancer Research, Sutton, UK. The five cell lines investigated were SKOV-3, A2780/A2780cisR and CH1/CH1cisR (cis R denotes that the cell line is resistant to cisplatin).
(§2) Single viable cells were seeded in growth medium (160 μL) in […] microtitre plates and allowed to attach overnight. […] After 96 hours, the medium was removed and the remaining cells fixed by exposure to 10% trichloroacetic acid on ice for 30 minutes. The wells were then washed 3-4 times with tap water, air dried overnight and treated with 100 μL of sulphorhodamine B (0.4%) dissolved in 1% acetic acid. Staining was allowed to continue for 10-15 minutes, then the wells were washed 3-4 times with 1% acetic acid, air dried and then added to Tris base (100 μL of 10 mM). Plates were then shaken and absorbance readings at 540 nm were determined using a plate reader. By using the Quattro-Pro software package, the IC50 values were calculated from plots of concentration versus percentage absorbance (compared with 8 untreated wells).

[2] = test system: CH1; experiment: Ovarian carcinoma cytotoxicity assay; assay type: cell-based; conditions: Homo sapiens
Experimental: as §1, §2

[3] = test system: SKOV-3; experiment: Ovarian carcinoma cytotoxicity assay; assay type: cell-based; conditions: Homo sapiens, SK-OV-3; 96 hours, sulphorhodamine B; read-out: IC50 Skov3
Experimental: as §1, §2

[4] = test system: MDA-MB-435; experiment: NCI in vitro cytotoxicity screen; assay type: cell-based; conditions: Homo sapiens, MDA-MB-435, 48 h, read-out: LC50
Experimental: (§3) The National Cancer Institute (NCI), Bethesda, Md., USA has available an in vitro cytotoxicity screen which consists of approximately 60 human tumour cell lines against which compounds are tested at a minimum of five concentrations each differing 10-fold. A 48 hour continuous exposure protocol is used, where cell viability or growth is estimated with an SRB protein assay.
(§4) The test compounds were evaluated against approximately 60 human tumour cell lines. The NCI screening procedures were described in detail by Monks and co-workers (Monks, A et al., Journal of the National Cancer Institute, 1991, 83, 757). Briefly, cell suspensions were diluted according to the particular cell type and the expected target cell density (5000-40,000 cells per well based on cell growth characteristics), and added by pipette (100 μL) into 96-well microtitre plates. The cells were allowed a preincubation period of 24 hours at 37° C. for stabilisation. Dilutions at twice the intended test concentration were added at time zero in 100 μL aliquots to the wells. The test compounds were evaluated at five 10-fold dilutions (10^−4, 10^−5, 10^−6, 10^−7 and 10^−[…]). The test compounds were incubated for 48 hours in 5% CO2 atmosphere and 100% humidity. The cells were then assayed using the sulphorhodamine B assay. A plate reader was used to read the optical densities and a microcomputer processed the readings into LC50 values, which is the dosage required to kill half of the cells.

[5] = test system: SK-MEL-28; experiment: NCI in vitro cytotoxicity screen; assay type: cell-based; conditions: Homo sapiens, SK-MEL-28, 48 h, read-out: LC50
Experimental: as §3, §4

[6] = test system: M14; experiment: NCI in vitro cytotoxicity screen; assay type: cell-based; conditions: Homo sapiens, M14, 48 h, read-out: LC50
Experimental: as §3, §4

[7] = test system: MDA-N; experiment: NCI in vitro cytotoxicity screen; assay type: cell-based; conditions: Homo sapiens, 48 h, read-out: LC50
Experimental: as §3, §4

[8] = test system: LOX IMVI; experiment: NCI in vitro cytotoxicity screen; assay type: cell-based; conditions: Homo sapiens, 48 h, read-out: LC50
Experimental: as §3, §4

[9] = test system: MALME-3M; experiment: NCI in vitro cytotoxicity screen; assay type: cell-based; conditions: Homo sapiens, Malme-3M, 48 h, read-out: LC50
Experimental: as §3, §4

[10] = test system: NCI-H522; experiment: NCI in vitro cytotoxicity screen; assay type: cell-based; conditions: Homo sapiens, NCI-H522, 48 h, read-out: LC50
Experimental: as §3, §4

[11] = test system: SK-MEL-2; experiment: NCI in vitro cytotoxicity screen; assay type: cell-based; conditions: Homo sapiens, SK-MEL-2, 48 h, read-out: LC50
Experimental: as §3, §4

[12] = test system: RXF 393; experiment: NCI in vitro cytotoxicity screen; assay type: cell-based; conditions: Homo sapiens, RXF 393, 48 h, read-out: LC50
Experimental: as §3, §4

[13] = test system: A2780; experiment: Ovarian carcinoma cytotoxicity assay; assay type: cell-based, human; conditions: Homo sapiens, A2780; 96 hours, sulphorhodamine B; read-out: IC50 A2780
Experimental: as §1, §2

[14] = test system: A2780cisR; experiment: Ovarian carcinoma cytotoxicity assay; assay type: cell-based, human; conditions: Homo sapiens, A2780cisR
Experimental: as §1, §2

[15] = test system: NCI-H23; experiment: NCI in vitro cytotoxicity screen; assay type: cell-based; conditions: Homo sapiens, NCI-H23, 48 h, read-out: LC50
Experimental: as §3, §4

[16] = test system: SK-MEL-5; experiment: NCI in vitro cytotoxicity screen; assay type: cell-based; conditions: Homo sapiens, SK-MEL-5, 48 h, read-out: LC50
Experimental: as §3, §4

[17] = test system: UACC-62; experiment: NCI in vitro cytotoxicity screen; assay type: cell-based; conditions: Homo sapiens, UACC-62, 48 h, read-out: LC50
Experimental: as §3, §4

[18] = test system: UACC-257; experiment: NCI in vitro cytotoxicity screen; assay type: cell-based; conditions: Homo sapiens, UACC-257, 48 h, read-out: LC50
Experimental: as §3, §4

[19] = test system: HCC-2998; experiment: NCI in vitro cytotoxicity screen; assay type: cell-based; conditions: Homo sapiens, HCC 2998, 48 h, read-out: LC50
Experimental: as §3, §4

[20] = test system: COLO 205; experiment: NCI in vitro cytotoxicity screen; assay type: cell-based; conditions: Homo sapiens, COLO 205, 48 h, read-out: LC50
Experimental: as §3, §4

[21] = test system: human tumour cells cultivated in hollow fibres implanted in mice; experiment: NCI Hollow Fibre Assay; assay type: in vivo
Excerpt: The Biological testing Branch of the Developmental Therapeutics Program of the NCI has adopted a preliminary in vivo screening tool for assessing the potential anticancer activity of compounds identified by the large scale in vitro cell screen. For these assays, human tumour cells are cultivated in polyvinylidene (PVDF) hollow fibres, and a sample of each cell line is implanted into each of two physiologic compartments (intraperitoneal and subcutaneaous) in mice. Each test mouse received a total of 6 fibres (3 intraperitoneally and 3 subcutaneously) representing 3 distinct cancer cell lines. These mice are treated with potential antitumour compounds at each of 2 test doses by the intraperitoneal route using a QD×4 treatment schedule. Vehicle controls consist of 6 mice receiving the compound diluent only. The fibre cultures are collected on the day following the last day of treatment. To assess anticancer effects, the viable cell mass is determined for each of the cell lines using a formazyn dye (MTT) conversion assay. From this, the % T/C can be calculated using the average optical density of compound treated samples divided by the average optical; density of the vehicle controls. In addition, the net increase in cell mass can be determined for each sample, as a sample of fibre cultures are assessed for viable cell mass on the day of implantation into mice. Thus, the cytostatic and cytocidal capacities of the test compound can be assessed.
Generally, each compound is tested against a minimum of 12 human cancer cell lines. This represents a total of 4 experiments since each experiment contains 3 cell lines. The data are reported as % T/C for each of the 2 compound doses against each of the cell lines with separate values calculated for the intraperitoneal and subcutaneous samples.
Compounds are selected for further in vivo testing in standard subcutaneous xenograft models on the basis of several hollow fibre assay criteria. These include: (1) a % T/C of 50 or less in 10 of the 48 possible test combinations (12 cell lines×2 sites×2 Compound doses); (2) activity at a distance (intraperitoneal drug/subcutaneous culture) in a minimum of 4 of the 24 possible combinations; and/or (3) a net cell kill of 1 or more of the cell lines in either implant site. To simplify evaluation, a points system has been adopted which allows rapid evaluation of the activity of a given compound. For this, a value of 2 is assigned for each compound dose which results in a 50% or greater reduction in viable cell mass. The intraperitoneal and subcutaneous samples are scored separately so that criteria (1) and (2) can be evaluated. Compounds with a combined IP+SC score of 20, a SC score of 8 or a net cell kill of one or more cell lines are referred for xenograft testing. […] In addition to these criteria, other factors (e.g. unique structure, mechanism of action) may result in referral of a compound for xenograft testing without the compound meeting these criteria.

[22] = test system: 786-0; experiment: NCI in vitro cytotoxicity screen; assay type: cell-based; conditions: Homo sapiens, 786-0, 48 h, read-out: LC50
Experimental: as §3, §4

[23] = test system: HCT-116; experiment: NCI in vitro cytotoxicity screen; assay type: cell-based; conditions: Homo sapiens, HCT-116, 48 h, read-out: LC50
Experimental: as §3, §4

[24] = test system: NCI-H460; experiment: NCI in vitro cytotoxicity screen; assay type: cell-based; conditions: Homo sapiens, NCI-H460, 48 h, read-out: LC50
Experimental: as §3, §4

[25] = test system: HS 578T; experiment: NCI in vitro cytotoxicity screen; assay type: cell-based; conditions: Homo sapiens; HS 578T (Breast), 48 hour exposure, SRB assay; read-out: LC50 (the source's name)
Experimental: as §3, §4

[26] = test system: SNB-75; experiment: NCI in vitro cytotoxicity screen; assay type: cell-based; conditions: Homo sapiens, SNB-75, 48 h, read-out: LC50
Experimental: as §3, §4

[27] = test system: KM12; experiment: NCI in vitro cytotoxicity screen; assay type: cell-based; conditions: Homo sapiens
Experimental: as §3, §4

[28] = test system: NCI-H226; experiment: NCI in vitro cytotoxicity screen; assay type: cell-based; conditions: Homo sapiens, NCI-H226, 48 h, read-out: LC50
Experimental: as §3, §4

[29] = test system: SF-539; experiment: NCI in vitro cytotoxicity screen; assay type: cell-based; conditions: Homo sapiens, SF-539, 48 h, read-out: LC50
Experimental: as §3, §4

[30] = CH1, 96 hours, sulphorhodamine B, read-out: IC50 CH1
[31] = cisplatin-resistant, 96 hours, sulphorhodamine B, read-out: IC50 A2780cisR

COc1ccc2c(c1)C(=O)N1CCC[C@H]1C=N2 (stereo in doubt) [UP2068 (96), 7-methoxy-1,2,3,11a-tetrahydro-5H-pyrrolo[2,1-c][1,4]benzodiazepin-5-one]
IC50 [1]: 0.42 µM
IC50 [2, 30]: 0.52 µM
IC50 [3]: 0.76 µM
CC50 [4]: 8.3 µM
CC50 [5]: 9.6 µM
CC50 [6]: 6.5 µM
CC50 [7]: 6.3 µM
CC50 [8]: 9.7 µM
CC50 [9]: 8.3 µM
CC50 [10]: 8.5 µM
CC50 [11]: 8.1 µM
CC50 [12]: 6.3 µM
IC50 [13]: 0.47 µM
IC50 [14, 31]: 0.66 µM

C=C1C[C@H]2C=Nc3cc(OCc4ccccc4)c(OC)cc3C(=O)N2C1 [UP2004 (70), (11aS)-8-Benzyloxy-7-methoxy-2-methylidene-1,2,3,11a-tetrahydro-5H-pyrrolo[2,1-c][1,4]benzodiazepin-5-one]
IC50 [1]: 0.082 µM
IC50 [2, 30]: 0.017 µM
IC50 [3]: 0.35 µM
CC50 [7]: 9 µM
CC50 [15]: 7.6 µM
CC50 [16]: 7.8 µM
CC50 [17]: 5.3 µM
CC50 [18]: 7.3 µM
CC50 [19]: 5.5 µM
CC50 [20]: 3.9 µM
Total score ([21]; combined IP+SC score): 18
IP score ([21]; intraperitoneal fibres, 2 points per dose giving 50% or greater reduction in viable cell mass): 8
SC score ([21]; subcutaneous fibres, 2 points per dose giving 50% or greater reduction in viable cell mass): 10
IC50 [13]: 0.029 µM
IC50 [14, 31]: 0.2 µM

COc1cc2c(cc1OCc1ccccc1)N=C[C@@H]1CC(CCO)=CN1C2=O [UP2052 (33)]
IC50 [1]: 0.037 µM
IC50 ([2]; CH1, 96 h, read-out: IC50 CH1, 96 hours, sulphorhodamine B): 0.09 µM
IC50 [3]: 0.105 µM
CC50 [6]: 2.7 µM
CC50 [22]: 3 µM
CC50 [10]: 3.1 µM
CC50 [19]: 0.8 µM
CC50 [11]: 0.5 µM
CC50 [23]: 1.1 µM
CC50 [24]: 3 µM
IC50 [13]: 0.07 µM
IC50 ([14]; 96 h, read-out: IC50 A2780cisR, cisplatin-resistant, 96 hours, sulphorhodamine B): 0.105 µM

Nc1ccc2c(c1)N=C[C@@H]1CCCN1C2=O [UP2028 (151), (11aS)-8-amino-1,2,3,11a-tetrahydro-5H-pyrrolo[2,1-c][1,4]benzodiazepin-5-one]
CC50 [25]: 9.2 µM
CC50 [4]: 7.2 µM
CC50 [5]: 8.1 µM
CC50 [26]: 8.2 µM
CC50 ([27]; KM12 (Colon), 48 hour exposure, SRB assay, read-out: LC50 (the source's name)): 8.8 µM
CC50 [9]: 5.7 µM
CC50 [10]: 0.8 µM
CC50 [11]: 5.4 µM
CC50 [12]: 0.7 µM
CC50 [20]: 5 µM

C=C1C[C@H]2C=Nc3ccc(I)cc3C(=O)N2C1 [UP2023 (64), (11as)-7-Iodo-2-methylidene-1,2,3,11a-tetrahydro-5H-pyrrolo[2,1-c][1,4]benzodiazepin-5-one]
IC50 [1]: 0.43 µM
IC50 [2, 30]: 0.37 µM
IC50 [3]: 16 µM
CC50 [4]: 7.6 µM
CC50 [28]: 9.1 µM
CC50 [5]: 8.4 µM
CC50 [7]: 6.6 µM
CC50 [16]: 6 µM
CC50 ([27]; KM12, 48 h, read-out: LC50): 7.1 µM
CC50 [9]: 7.8 µM
CC50 [17]: 7.2 µM
CC50 [10]: 5.2 µM
CC50 [29]: 9.4 µM
CC50 [19]: 7 µM
CC50 [11]: 7.4 µM
CC50 [12]: 6.1 µM
CC50 [20]: 5.8 µM
IC50 [13]: 0.49 µM
IC50 [14, 31]: 1.45 µM
